biological target: Free fatty acid receptor 1 (Homo sapiens, UniProt O14842); assay: Agonist activity at human GPR40 expressed in human 1321N1 cells assessed as IP1 accumulation after 1 hr by HTRF assay; assay type: functional, cell-based
Sequence (O14842 whole entry): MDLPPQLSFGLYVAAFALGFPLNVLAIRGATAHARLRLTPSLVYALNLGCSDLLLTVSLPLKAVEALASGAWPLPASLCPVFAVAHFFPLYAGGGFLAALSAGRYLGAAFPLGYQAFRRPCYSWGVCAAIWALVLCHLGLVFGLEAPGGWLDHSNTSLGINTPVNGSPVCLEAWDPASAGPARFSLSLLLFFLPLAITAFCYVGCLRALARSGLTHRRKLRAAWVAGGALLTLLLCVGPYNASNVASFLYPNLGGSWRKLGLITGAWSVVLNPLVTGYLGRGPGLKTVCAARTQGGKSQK

| SMILES | EC50 [nM] |
| --- | --- |
| Cc1cc(OCCC(C)(C)O)cc(C)c1-c1ccc(F)c2c1CC[C@H]2Nc1ccc([C@H]2C[C@@H]2C(=O)O)nc1 | 11 |
| CNC(=O)c1cc(C)c(-c2ccc(F)c3c2CC[C@H]3Nc2ccc([C@H]3C[C@@H]3C(=O)O)nc2)c(C)c1 | 148 |

The next compounds have a lower EC50 than those just listed; values first:

| EC50 [nM] | SMILES |
| --- | --- |
| 4 | Cc1cc(-c2cccc(=O)n2C)cc(C)c1-c1ccc(F)c2c1CC[C@H]2Nc1ccc([C@H]2C[C@@H]2C(=O)O)nc1 |
| 7 | Cc1cc(OCC2CCOC2)cc(C)c1-c1ccc(F)c2c1CC[C@H]2Nc1ccc([C@H]2C[C@@H]2C(=O)O)nc1 (stereo not given in full) |
| 2 | Cc1cc(-c2nnn(CC(C)(C)O)n2)cc(C)c1-c1ccc(F)c2c1CC[C@H]2Nc1ccc([C@H]2C[C@@H]2C(=O)O)nc1 |

Source: ChEMBL document CHEMBL4196229, “GPR40 Receptor Agonists for the Treatment of Type 2 Diabetes and Related Diseases” (ACS Med Chem Lett, 2018)
